# From patent US8003621B2, “Drug carriers” (Nitto Denko Corporation, priority 2007, dated 2011)
# System: red blood cell
# Test: Hemolytic assay
# Design: species or system nude mice
# Details: 0.2% TritonX-100, 100 μL/well with 10 μL of blood sample; 60 minutes at 37° C.
# Experimental: Blood samples of nude mice were collected in heparinize-tubes and were centrifuged at 700×g for 10 minutes. The supernatant was discarded, and the red blood cell pellet was washed three times with cold PBS (pH 7.4) and was re-suspended in the same buffer. Solutions of the polymers and the siEGFP of different concentrations were prepared in PBS buffers and were added to the round-bottom plate at 100 μL/well. Blood sample (10 μL) was added to each well, and the plate was incubated for 60 minutes at 37° C. The release of hemoglobin was determined by photospectrometric analysis after centrifugation (700 g for 10 min). The supernatant (100 μL) from each well was transferred into flat-bottom plate. Intensity of […] at 540 nm was measured by a plate reader.
substance,measurement,value
TritonX-100,hemolysis (control value),100%
